Data reported in ChEMBL document CHEMBL1141299, “Hologram QSAR model for the prediction of human oral bioavailability” (Bioorg Med Chem, 2007).

Assay: Oral bioavailability in human
Conditions: in vivo

SMILES	bioavailability [%]
CCOC(=O)C1=C[C@@H](OC(CC)CC)[C@H](NC(C)=O)[C@@H](N)C1 [OSELTAMIVIR]	75
c1ccc(C2(N3CCCCC3)CCCCC2)cc1 [PHENCYCLIDINE]	72
CCC1(c2ccccc2)C(=O)NC(=O)NC1=O [PHENOBARBITAL]	96
CCC(C(N)=O)(C(N)=O)c1ccccc1 [PHENYLETHYLMALONAMIDE]	91
CNC(=O)Oc1ccc2c(c1)[C@]1(C)CCN(C)[C@@H]1N2C [PHYSOSTIGMINE]	6
C[C@@H]1O[C@@H](O[C@@H]2C=C3CC[C@@H]4[C@H](CC[C@]5(C)[C@@H](c6ccc(=O)oc6)CC[C@]45O)[C@@]3(C)CC2)[C@H](O)[C@H](O)[C@H]1O [PROSCILLARIDIN]	7
NC(=O)c1ncn([C@@H]2O[C@H](CO)[C@@H](O)[C@H]2O)n1 [RIBAVIRIN]	64
Cc1nc2n(c(=O)c1CCN1CCC(c3noc4cc(F)ccc34)CC1)CCCC2 [RISPERIDONE]	70
C[C@]12CC[C@H]3[C@@H](CCC4=CC(=O)CC[C@@]43C)[C@@H]1CC[C@@H]2O [TESTOSTERONE]	7
Cn1c(=O)c2[nH]cnc2n(C)c1=O.O [THEOPHYLLINE]	98.8
COc1cccc([C@@]2(O)CCCC[C@@H]2CN(C)C)c1 [TRAMADOL]	75
Cc1nnc2n1-c1ccc(Cl)cc1C(c1ccccc1Cl)=NC2 [TRIAZOLAM]	44
O=C(O[C@H]1C[C@H]2CC[C@@H](C1)[N+]21CCCC1)C(O)(c1ccccc1)c1ccccc1 [TROSPIUM]	9.6
CCN(C(C)=O)c1cccc(-c2ccnc3c(C#N)cnn23)c1 [ZALEPLON]	30

Same assay, conditions: in vivo, F

SMILES	bioavailability [%]
CN(C)[C@@H]1C(O)=C(C(N)=O)C(=O)[C@@]2(O)C(O)=C3C(=O)c4c(O)cccc4[C@@](C)(O)[C@H]3[C@H](O)[C@@H]12 [OXYTETRACYCLINE]	58
COc1ccnc(C[S+]([O-])c2nc3ccc(OC(F)F)cc3[nH]2)c1OC (centres undefined) [PANTOPRAZOLE]	77
CC1(C)S[C@@H]2[C@H](NC(=O)Cc3ccccc3)C(=O)N2[C@H]1C(=O)O [PENICILLIN G]	22.5
O=C1NC(=O)C(c2ccccc2)(c2ccccc2)N1 [PHENYTOIN]	90
CN(C)S(=O)(=O)c1ccc2c(c1)N(CCCN1CCC(CCO)CC1)c1ccccc1S2 [PIPOTIAZINE]	26
O=C(O)Cc1nn(-c2ccc(F)cc2)cc1-c1ccc(Cl)cc1 [PIRAZOLAC]	93.5
CN1C(C(=O)Nc2ccccn2)=C(O)c2ccccc2S1(=O)=O [PIROXICAM]	100
CC[C@H](C)C(=O)O[C@H]1C[C@H](O)C=C2C=C[C@H](C)[C@H](CC[C@@H](O)C[C@@H](O)CC(=O)O)[C@H]21 [PRAVASTATIN]	17
COc1cc2nc(N3CCN(C(=O)c4ccco4)CC3)nc(N)c2cc1OC [PRAZOSIN]	68
C[C@]12C=CC(=O)C=C1CC[C@@H]1[C@@H]2[C@@H](O)C[C@@]2(C)[C@H]1CC[C@]2(O)C(=O)COP(=O)(O)O [PREDNISOLONE PHOSPHORIC ACID]	82
C[C@]12C=CC(=O)C=C1CC[C@@H]1[C@@H]2C(=O)C[C@@]2(C)[C@H]1CC[C@]2(O)C(=O)CO [PREDNISONE]	80
CCC1(c2ccccc2)C(=O)NCNC1=O [PRIMIDONE]	92
CCN(CC)CCNC(=O)c1ccc(N)cc1 [PROCAINAMIDE]	83
CCCc1cc(=O)[nH]c(=S)[nH]1 [PROPYLTHIOURACIL]	78
CNCCCC1c2ccccc2C=Cc2ccccc21 [PROTRIPTYLINE]	85
C=C[C@H]1C[N@@]2CC[C@H]1C[C@@H]2[C@@H](O)c1ccnc2ccc(OC)cc12 [QUINIDINE]	75
CC(C)(C)NC[C@@H](O)COc1cccc2c1C[C@H](O)[C@H](O)C2 [R-NADOLOL]	34
O=C(c1ccc(OCCN2CCCCC2)cc1)c1c(-c2ccc(O)cc2)sc2cc(O)ccc12 [RALOXIFENE]	2
CCOc1cc(CC(=O)N[C@@H](CC(C)C)c2ccccc2N2CCCCC2)ccc1C(=O)O [REPAGLINIDE]	56
CO[C@H]1/C=C/O[C@@]2(C)Oc3c(C)c(O)c4c(O)c(c(/C=N/N5CCN(C)CC5)c(O)c4c3C2=O)NC(=O)/C(C)=C\C=C\[C@H](C)[C@H](O)[C@@H](C)[C@@H](O)[C@@H](C)[C@H](OC(C)=O)[C@@H]1C [RIFAMPIN]	88.8

SMILES	bioavailability [%]
CN(C)CCc1c[nH]c2ccc(Cn3cncn3)cc12 [RIZATRIPTAN]	45
CS(=O)(=O)c1ccc(C2=C(c3ccccc3)C(=O)OC2)cc1 [ROFECOXIB]	93
CCCN(CCC)CCc1cccc2c1CC(=O)N2 [ROPINIROLE]	55
CC(C)(C)NC[C@H](O)COc1cccc2c1C[C@H](O)[C@H](O)C2 [S-NADOLOL]	34
Cc1cccc(C)c1NC(=O)[C@H](C)N [S-TOCAINIDE]	89
O=C1NS(=O)(=O)c2ccccc21 [SACCHARIN]	84
CO[C@H]1C[C@@H]2CC[C@@H](C)[C@@](O)(O2)C(=O)C(=O)N2CCCC[C@H]2C(=O)O[C@H]([C@H](C)C[C@@H]2CC[C@@H](O)[C@H](OC)C2)CC(=O)[C@H](C)/C=C(\C)[C@@H](O)[C@@H](OC)C(=O)[C@H](C)C[C@H](C)/C=C/C=C/C=C/1C [SIROLIMUS]	14
CC(=O)S[C@@H]1CC2=CC(=O)CC[C@]2(C)[C@H]2CC[C@@]3(C)[C@@H](CC[C@@]34CCC(=O)O4)[C@H]12 [SPIRONOLACTONE]	25
Cc1cn([C@H]2C=C[C@@H](CO)O2)c(=O)[nH]c1=O [STAVUDINE]	82
C=CC[C@@H]1/C=C(\C)C[C@H](C)C[C@H](OC)[C@H]2O[C@@](O)(C(=O)C(=O)N3CCCC[C@H]3C(=O)O[C@H](/C(C)=C/[C@@H]3CC[C@@H](O)[C@H](OC)C3)[C@H](C)[C@@H](O)CC1=O)[C@H](C)C[C@@H]2OC [TACROLIMUS ANHYDROUS]	17
C[C@@H](C(=O)O)c1ccc(-c2ccccc2)c(F)c1 [TARENFLURBIL]	92
Cc1scc2c1N(C(=O)CN1CCN(C)CC1)c1ccccc1NC2=O [TELENZEPINE]	54
CC[C@H]1OC(=O)[C@H](C)C(=O)[C@H](C)[C@@H](O[C@@H]2O[C@H](C)C[C@H](N(C)C)[C@H]2O)[C@](C)(OC)C[C@@H](C)C(=O)[C@H](C)[C@H]2N(CCCCn3cnc(-c4cccnc4)c3)C(=O)O[C@]12C [TELITHROMYCIN]	57
CN(C)[C@@H]1C(O)=C(C(N)=O)C(=O)[C@@]2(O)C(O)=C3C(=O)c4c(O)cccc4[C@@](C)(O)[C@H]3C[C@@H]12 [TETRACYCLINE]	77
CCCCNC(=O)NS(=O)(=O)c1ccc(C)cc1 [TOLBUTAMIDE]	85
CC1(C)O[C@@H]2[C@@H](CO[C@@]3(COS(N)(=O)=O)OC(C)(C)O[C@@H]23)O1 [TOPIRAMATE]	70
CC[C@@]1(O)C(=O)OCc2c1cc1n(c2=O)Cc2cc3c(CN(C)C)c(O)ccc3nc2-1 [TOPOTECAN]	32
Cc1cccc(Nc2ccncc2S(=O)(=O)NC(=O)NC(C)C)c1 [TORSEMIDE]	91
COc1cc(Cc2cnc(N)nc2N)cc(OC)c1OC [TRIMETHOPRIM]	63
CCCC(CCC)C(=O)O [VALPROIC ACID]	90
